Non-standard residues stand in square brackets, D forms with d. Residues, ends and D or L forms follow the SMILES beside them. No end group written: not given here. Dmt = Cc1cc(O)cc(C)c1C[C@H](N)C(=O)O
Assays:
[1] = tested on: several mammalian cell types; conditions: energy-independent manner (Zhao, et al., 2003); cited from earlier work
[2] = tested on: fibroblasts from Friedreich's ataxia (FRDA) patients; conditions: 1-10 μM peptide 24 hours, then 5 μm Fe/HQ for 5 hours
Method: Iron with hydroquinone (HQ) induces oxidative stress in cells because HQ forms a lipophilic chelate with iron and rapidly transfers the metal across the normally impermeable plasma membrane.
After 24 hours, the media is changed and the cells are treated with 5 μm Fe/HQ for 5 hours.

mu-opioid receptor = mu-opioid receptor (Homo sapiens, UniProt P35372); test: Mu-opioid receptor agonist activity; conditions: stated without a test
mu-opioid receptor, sequence (P35372 whole entry, species assumed): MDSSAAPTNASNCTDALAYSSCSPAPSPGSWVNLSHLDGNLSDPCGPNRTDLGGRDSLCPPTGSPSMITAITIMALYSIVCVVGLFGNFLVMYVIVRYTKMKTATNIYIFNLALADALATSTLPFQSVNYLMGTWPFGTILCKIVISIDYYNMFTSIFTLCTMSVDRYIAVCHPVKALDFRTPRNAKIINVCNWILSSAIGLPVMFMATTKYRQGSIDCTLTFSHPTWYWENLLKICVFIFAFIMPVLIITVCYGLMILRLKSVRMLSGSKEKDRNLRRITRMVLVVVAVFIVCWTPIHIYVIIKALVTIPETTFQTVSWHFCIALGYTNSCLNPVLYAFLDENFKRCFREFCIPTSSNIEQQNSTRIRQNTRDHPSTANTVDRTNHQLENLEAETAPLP

| Compound | mu-opioid receptor agonist activity (mu-opioid receptor) | other results |
| --- | --- | --- |
| 2′,6′-Dmt-D-Arg-Phe-Lys-NH2 | – | penetration of the plasma membrane [1]: readily penetrates the plasma membrane |
| Cc1cc(O)cc(C)c1C[C@H](NC(=O)[C@H](N)CCCNC(=N)N)C(=O)N[C@@H](CCCCN)C(=O)N[C@@H](Cc1ccccc1)C(N)=O [D-Arg-2′,6′-Dmt-Lys-Phe-NH2] (H-[dR][Dmt]KF-NH2) | – | survival and cytotoxicity by morphologic appearance [2]: reduced evidence of cytotoxicity |
| F[dR]FK-NH2 | does not have mu-opioid receptor agonist activity | – |
| Tyr-D-Arg-Phe-Lys-NH2 | has mu-opioid receptor agonist activity | – |
